Test results as given in paper PMC10791743, “Selective CK1α degraders exert antiproliferative activity against a broad range of human cancer cell lines” (Nature Communications, 2024).

Columns and labels:
102 cell lines [1] = assay: Oncolines viability of 120 reference anti-cancer agents; format: cell-based, human
Method: Pearson correlations were calculated between SJ3149 ^10log IC50 values and those of the 120 reference agents, to determine the similarity of compound IC50 fingerprints.

102 cell lines [2] = settings: cited from earlier work
102 cell lines [3] = assay: Oncolines viability of 120 reference anti-cancer agents; format: cell-based, human; remark: listed apart in the source

SMILES: COc1ccc(C2=N[C@@H](c3ccc(Cl)cc3)[C@@H](c3ccc(Cl)cc3)N2C(=O)N2CCNC(=O)C2)c(OC(C)C)c1 [Nutlin-3a]
- IC50 (102 cell lines [1]; G-361, Melanoma): 2.53 µM
- IC50 (102 cell lines [1]; JAR, Gestational choriocarcinoma): 7.25 µM
- IC50 (102 cell lines [1]; KG-1, Adult acute myeloid leukemia): > 31.6 µM
- IC50 (102 cell lines [1]; MOLT-4, Adult T acute lymphoblastic leukemia): 2.87 µM
- IC50 (102 cell lines [1]; NCI-H460, Large cell lung carcinoma): 4.2 µM
- IC50 (102 cell lines [1]; RL, Diffuse large B-cell lymphoma, TP53 Mutant): > 31.6 µM
- IC50 (102 cell lines [1]; SNU-C2B, Cecum adenocarcinoma, TP53 Mutant): > 31.6 µM
- IC50 (102 cell lines [1]; SR, Anaplastic large cell lymphoma, TP53 Mutant): 2.04 µM
- IC50 (102 cell lines [1]; SW948, Colon adenocarcinoma, TP53 Mutant): > 31.6 µM
- IC50 (102 cell lines [1]; cell line ACHN, Papillary renal cell carcinoma, TP53 Wild-type): 3.3 µM
- IC50 (102 cell lines [1]; cell line AsPC-1, Pancreatic ductal adenocarcinoma, TP53 Mutant): > 31.6 µM
- IC50 (102 cell lines [1]; cell line Daoy, Medulloblastoma, TP53 Mutant): > 31.6 µM
- IC50 (102 cell lines [1]; cell line TT (Hereditary thyroid gland medullary carcinoma), TP53 Wild-type): 7.4 µM
- IC50 (102 cell lines [1]; cell line U-2 OS (Osteosarcoma), TP53 Wild-type): 13.3 µM
- Potency in responsive cell lines (102 cell lines [2]): micromolar potency
- IC50 (102 cell lines [3]; FaDu, Hypopharyngeal squamous cell carcinoma): > 31.6 µM
- IC50 (102 cell lines [3]; HCT 116, Colon carcinoma): 4.55 µM
- IC50 (102 cell lines [3]; HCT-15, Colon adenocarcinoma): > 31.6 µM
- IC50 (102 cell lines [3]; HL-60, Adult acute myeloid leukemia): > 31.6 µM
- IC50 (102 cell lines [3]; HT-1080, Fibrosarcoma): 2.06 µM
- IC50 (102 cell lines [3]; HT, Diffuse large B-cell lymphoma): > 31.6 µM
- IC50 (102 cell lines [3]; Hs 578T, Invasive ductal carcinoma): > 31.6 µM
- IC50 (102 cell lines [3]; Hs 746T, Gastric adenocarcinoma): > 31.6 µM
- IC50 (102 cell lines [3]; Hs 766T, Pancreatic adenocarcinoma): > 31.6 µM
- IC50 (102 cell lines [3]; HuTu 80, Duodenal adenocarcinoma): 3.91 µM
- IC50 (102 cell lines [3]; J82, Bladder carcinoma): > 31.6 µM
- IC50 (102 cell lines [3]; Jurkat E6.1, Childhood T acute lymphoblastic leukemia): > 31.6 µM
- IC50 (102 cell lines [3]; K-562, Chronic myelogenous leukemia): > 31.6 µM
- IC50 (102 cell lines [3]; KATO III, Signet ring cell gastric adenocarcinoma): 29.3 µM
- IC50 (102 cell lines [3]; KLE, Endometrial adenocarcinoma): > 31.6 µM
- IC50 (102 cell lines [3]; KU812, Chronic myelogenous leukemia): > 31.6 µM
- IC50 (102 cell lines [3]; LNCaP FGC, Prostate carcinoma): 10.9 µM
- IC50 (102 cell lines [3]; LS 174T, Colon adenocarcinoma): 3.7 µM
- IC50 (102 cell lines [3]; LS411N, Cecum adenocarcinoma): > 31.6 µM
- IC50 (102 cell lines [3]; LoVo, Colon adenocarcinoma): 10.2 µM
- IC50 (102 cell lines [3]; MCF7, Invasive ductal carcinoma): 11.4 µM
- IC50 (102 cell lines [3]; MG-63, Osteosarcoma): > 31.6 µM
- IC50 (102 cell lines [3]; MIA PaCa-2, Pancreatic ductal adenocarcinoma): > 31.6 µM
- IC50 (102 cell lines [3]; MeWo, Melanoma): > 31.6 µM
- IC50 (102 cell lines [3]; NCCIT, Testicular embryonal carcinoma): > 31.6 µM
- IC50 (102 cell lines [3]; NCI-H82, Small cell lung carcinoma): > 31.6 µM
- IC50 (102 cell lines [3]; NCI-H661, Large cell lung carcinoma): > 31.6 µM
- IC50 (102 cell lines [3]; OVCAR-3, High grade ovarian serous adenocarcinoma, TP53 Mutant): > 31.6 µM
- IC50 (102 cell lines [3]; PA-1, Ovarian mixed germ cell tumor, TP53 Wild-type): 2.31 µM
- IC50 (102 cell lines [3]; PC-3, Prostate carcinoma, TP53 Mutant): > 31.6 µM
- IC50 (102 cell lines [3]; PFSK-1, Primitive neuroectodermal tumor, TP53 Mutant): > 31.6 µM
- IC50 (102 cell lines [3]; RD, Embryonal rhabdomyosarcoma, TP53 Mutant): > 31.6 µM
- IC50 (102 cell lines [3]; RKO, Colon carcinoma, TP53 Wild-type): 15.7 µM
- IC50 (102 cell lines [3]; RL95-2, Endometrial adenosquamous carcinoma, TP53 Mutant): 24.6 µM
- IC50 (102 cell lines [3]; RPMI-7951, Melanoma, TP53 Mutant): > 31.6 µM
- IC50 (102 cell lines [3]; RS4-11, Adult B acute lymphoblastic leukemia, TP53 Wild-type): 4.71 µM
- IC50 (102 cell lines [3]; RT4, Bladder carcinoma, TP53 Wild-type): 7.03 µM
- IC50 (102 cell lines [3]; SHP-77, Small cell lung carcinoma, TP53 Mutant): 27.3 µM
- IC50 (102 cell lines [3]; SJCRH30, Alveolar rhabdomyosarcoma, TP53 Mutant): > 31.6 µM
- IC50 (102 cell lines [3]; SK-N-AS, Neuroblastoma, TP53 Wild-type): > 31.6 µM
- IC50 (102 cell lines [3]; SK-N-FI, Neuroblastoma, TP53 Mutant): > 31.6 µM
- IC50 (102 cell lines [3]; SNU-5, Gastric carcinoma, TP53 Mutant): > 31.6 µM
- IC50 (102 cell lines [3]; SU-DHL-1, Anaplastic large cell lymphoma, TP53 Mutant): 30.7 µM
- IC50 (102 cell lines [3]; SU-DHL-6, Diffuse large B-cell lymphoma, TP53 Mutant): 23.4 µM
- IC50 (102 cell lines [3]; SUP-T1, Childhood T lymphoblastic lymphoma, TP53 Mutant): > 31.6 µM
- IC50 (102 cell lines [3]; SW48, Colon adenocarcinoma, TP53 Wild-type): 7.63 µM
- IC50 (102 cell lines [3]; SW480, Colon adenocarcinoma, TP53 Mutant): > 31.6 µM
- IC50 (102 cell lines [3]; SW620, Colon adenocarcinoma, TP53 Mutant): 13.6 µM
- IC50 (102 cell lines [3]; SW626, Colon adenocarcinoma, TP53 Mutant): > 31.6 µM
- IC50 (102 cell lines [3]; SW837, Rectal adenocarcinoma, TP53 Mutant): > 31.6 µM
- IC50 (102 cell lines [3]; SW872, Liposarcoma, TP53 Mutant): > 31.6 µM
- IC50 (102 cell lines [3]; SW900, Squamous cell lung carcinoma, TP53 Mutant): > 31.6 µM
- IC50 (102 cell lines [3]; SW982, Biphasic synovial sarcoma, TP53 Wild-type): 3.11 µM
- IC50 (102 cell lines [3]; T24, Bladder carcinoma, TP53 Mutant): > 31.6 µM
- IC50 (102 cell lines [3]; T98G, Glioblastoma, TP53 Mutant): > 31.6 µM
- IC50 (102 cell lines [3]; cell line 769-P, Renal cell carcinoma, TP53 Wild-type): 5.52 µM
- IC50 (102 cell lines [3]; cell line 786-O, Renal cell carcinoma, TP53 Mutant): 13.4 µM
- IC50 (102 cell lines [3]; cell line 5637, Bladder carcinoma, TP53 Mutant): > 31.6 µM
- IC50 (102 cell lines [3]; cell line A375, Amelanotic melanoma, TP53 Wild-type): 6.9 µM
- IC50 (102 cell lines [3]; cell line A388, Squamous cell carcinoma, TP53 Mutant): > 31.6 µM
- IC50 (102 cell lines [3]; cell line A-172, Glioblastoma, TP53 Wild-type): 11.5 µM
- IC50 (102 cell lines [3]; cell line A-204, Embryonal rhabdomyosarcoma, TP53 Wild-type): 3.06 µM
- IC50 (102 cell lines [3]; cell line A-427, Lung adenocarcinoma, TP53 Wild-type): 5.36 µM
- IC50 (102 cell lines [3]; cell line A-498, Renal cell carcinoma, TP53 Wild-type): 5.59 µM
- IC50 (102 cell lines [3]; cell line A-549, Lung adenocarcinoma, TP53 Wild-type): 6.56 µM
- IC50 (102 cell lines [3]; cell line A-704, Renal cell carcinoma, TP53 Mutant): > 31.6 µM
- IC50 (102 cell lines [3]; cell line AN3 CA, Endometrial adenocarcinoma, TP53 Mutant): > 31.6 µM
- IC50 (102 cell lines [3]; cell line AU-565, Breast adenocarcinoma, TP53 Mutant): > 31.6 µM
- IC50 (102 cell lines [3]; cell line BT-20, Invasive ductal carcinoma, TP53 Mutant): > 31.6 µM
- IC50 (102 cell lines [3]; cell line BT-549, Invasive ductal carcinoma, TP53 Mutant): > 31.6 µM
- IC50 (102 cell lines [3]; cell line BxPC-3, Pancreatic ductal adenocarcinoma, TP53 Mutant): > 31.6 µM
- IC50 (102 cell lines [3]; cell line C-33 A, Cervical squamous cell carcinoma, TP53 Mutant): > 31.6 µM
- IC50 (102 cell lines [3]; cell line CAL 27, Tongue squamous cell carcinoma, TP53 Mutant): > 31.6 µM
- IC50 (102 cell lines [3]; cell line CCF-STTG1, Astrocytoma, TP53 Wild-type): 7.17 µM
- IC50 (102 cell lines [3]; cell line CCRF-CEM, Childhood T acute lymphoblastic leukemia, TP53 Mutant): > 31.6 µM
- IC50 (102 cell lines [3]; cell line COLO 205, Colon adenocarcinoma, TP53 Mutant): > 31.6 µM
- IC50 (102 cell lines [3]; cell line COLO 829, Cutaneous melanoma, TP53 Wild-type): 15.6 µM
- IC50 (102 cell lines [3]; cell line DB, Diffuse large B-cell lymphoma, TP53 Mutant): 28.6 µM
- IC50 (102 cell lines [3]; cell line DLD-1, Colon adenocarcinoma, TP53 Mutant): > 31.6 µM
- IC50 (102 cell lines [3]; cell line DU 145, Prostate carcinoma, TP53 Mutant): > 31.6 µM
- IC50 (102 cell lines [3]; cell line DU4475, Breast carcinoma, TP53 Wild-type): 4.62 µM
- IC50 (102 cell lines [3]; cell line DoTc2 4510, Cervical carcinoma, TP53 Wild-type): > 31.6 µM
- IC50 (102 cell lines [3]; cell line ES-2, Ovarian clear cell adenocarcinoma, TP53 Mutant): > 31.6 µM
- IC50 (102 cell lines [3]; cell line TCCSUP (Bladder carcinoma), TP53 Mutant): > 31.6 µM
- IC50 (102 cell lines [3]; cell line THP-1 (Childhood acute monocytic leukemia), TP53 Mutant): > 31.6 µM
- IC50 (102 cell lines [3]; cell line U-87 MG (Glioblastoma), TP53 Wild-type): 4.37 µM
- IC50 (102 cell lines [3]; cell line U-118 MG (Astrocytoma), TP53 Mutant): > 31.6 µM
- IC50 (102 cell lines [3]; cell line VA-ES-BJ (Epithelioid sarcoma), TP53 Wild-type): 1.73 µM
